{
  "source": "patent US20250213499A1",
  "about": "“COMPOSITION FOR PREVENTING OR TREATING ISCHEMIC STROKE, CONTAINING SOBREROL AS ACTIVE INGREDIENT” (NEUROLMED CO., LTD, priority 2020, published 2025)",
  "test_system": "focal cerebral ischemia induced by middle cerebral artery occlusion and reperfusion (MCAO/R)",
  "assay": "Rodent cerebral ischemia model (MCAO/R): volume of cerebral infarction area by TTC staining",
  "type": "in vivo, mice (C57/BL6)",
  "conditions": "for cerebral infarction volume due to focal cerebral ischemia (FIG. 3): TTC-stained brain slices, ImageJ, *** p<0.001",
  "method": "12- to 13-week-old male mice (C57/BL6) were used in the experiment. The mice were divided into four groups of five each (three in the Sham group): Sham (surgical control group), stroke surgery group (Stroke), stroke+sobrerol-L (administration of 10 mg/kg of SOB-L), and stroke+sobrerol-H (administration of 40 mg/kg of SOB-H). According to the schematic view shown in FIG. 1, middle cerebral artery occlusion and reperfusion operation (MCAO/R) was performed to induce focal cerebral ischemia. After MCAO/R surgery, sobrerol was orally administered at concentrations of 10 mg/kg and 40 mg/kg. In the Sham and Stroke control groups, saline was orally administered. Neurological deficit tests were performed 22-23 hours after MCAO/R (n=5). After re-anesthesia, cardiac reperfusion in mice was carried out with PBS solution, and the brains were immediately removed and stained with 2% TTC (2,3,5-triphenyl-tetrazolium chloride) solution. TTC-stained slices were obtained from the mice in four groups, particularly Sham (surgical control group), stroke surgery group (Stroke), stroke+sobrerol-L (administration of 10 mg/kg of SOB-L), and stroke+sobrerol-H (administration of 40 mg/kg of SOB-H), and the volume of the cerebral infarction area was measured. Quantification was measured using ImageJ.",
  "data": [
    {"smiles": "CC1=CCC(C(C)(C)O)CC1O", "note": "(centres unmarked) [sobrerol, 5-(2-hydroxypropan-2-yl)-2-methylcyclohex-2-en-1-ol]", "values": [
      {"measurement": "cerebral infarction volume due to focal cerebral ischemia (FIG. 3)", "setting": "10 mg/kg oral after MCAO/R (sobrerol-L)", "value": "significantly reduced"},
      {"measurement": "damage status of ischemic brain tissue in TTC-stained slices (FIG. 2)", "setting": "40 mg/kg oral (stroke+sobrerol-H) compared to sobrerol-L, Stroke and Sham groups, red area = undamaged, white = infarction", "value": "undamaged"},
      {"measurement": "cerebral infarction volume due to focal cerebral ischemia (FIG. 3)", "setting": "40 mg/kg oral after MCAO/R (sobrerol-H)", "value": "significantly reduced"},
      {"measurement": "damage status of ischemic brain tissue in TTC-stained slices (FIG. 2)", "setting": "group orally administered sobrerol compared to the other groups, dose not given", "value": "red undamaged area without cerebral infarction area"},
      {"measurement": "infarction size", "setting": "stroke animal model, compared to the group not administered a stroke drug, dose not stated", "value": "decrease"}
    ]}
  ]
}
